# Source: US11596691B2, “Photoswitchable HDAC inhibitors” (The General Hospital Corporation, priority 2013, dated 2023)
# “Also recorded” adds a separate entry of the source.
# How the values were obtained:
# Absorbance spectra = format: physicochemical
# From the text: Compounds were profiled physically to determine absorbance spectra, solubility and kinetics of photo-isomerization kinetics and thermal relaxation (where applicable). The compounds were then profiled biochemically to determine the HDAC inhibitory profile as a function of light exposure. Finally, selected compounds were profiled in cellular assays for the ability to induce hyperacetylation of histone proteins, which represents a biomarker readout for HDAC inhibition.
# Compounds studied include those analogs with a push-pull azobenzene system (BG14, BG18, BG47, BG48 and BG49).
# Physical characterization of the prototype inhibitors in PBS confirmed that all compounds strongly absorb light in the blue spectrum with maximum absorbance around 470 nm.
# MCF7 cells = assay: L1000 gene expression profiling / GSEA in MCF7 cells; format: cell-based
# Description: In order to gain more quantitative insights into the specific genes regulated by the presented inhibitors, and to provide further evidence that the BG inhibitors elicit biological responses similar to the closely related, but light-independent HDAC inhibitors a high-throughput gene expression analysis was performed. Expression profiling was performed in quadruplicate using the L1000™ platform (Genometry, Inc.). Specifically MCF7 cells were treated with various compounds and the transcriptional changes were measured as a function of compound concentration, light exposure intensity, and treatment duration relative to the reference HDAC inhibitors CI994 and “Merck60”.
# To assess BG14's nature as an HDAC inhibitor beyond its ability to modulate HDAC and histone acetylation levels, Gene Set Enrichment Analysis (GSEA) was performed between BG14 (max concentration, max amount of light) and the known HDAC inhibitor CI-994 (the same concentration) (FIG. 15D). Very remarkably, the Normalized Enrichment Score (NES) of 3.25 indicates a very high degree of similarity between both expression profiles. The identified 177 On-Target Gene List, (landmark genes regulated by light-dependent BG14_trans only), as well as the 68 Off-Target list (landmark genes regulated in absence of light by BG14_cis) were compared to the list of genes regulated by CI-994. […]
# HDAC1-3 = assay: HDAC IC50 assay with and without 470 nm light exposure; format: biochemical; settings: for change of inhibitory activity against HDAC1-3 on light exposure: with vs without exposure (including 1 hr pre-exposure) to 470 nm light
# Description: (§1) Compounds were added to white 96-well plates containing 40 μL of HDAC assay buffer (50 mM HEPES, 100 mM KCl, 0.05% BSA, 0.001% Tween-20 at pH 7.4) by pin transfer. To the assay plate was added 40 μL of a stock solution of full-length HDAC protein at three times the desired final concentration. After addition the plate was centrifuged to mix the solution while removing air bubbles. […] After which, reads were taken every 15 minutes to follow the fluorogenic release of 7-amino-4-methylcoumarin from the substrate resulting from deacetylase and trypsin enzymatic activity. In between reads the LED excitation device was reaffixed on top of the plate ensuring maximum cis-isomer population. In parallel to this, a second plate was prepared identically and measured for activity but this plate was not excited by our device but rather was covered to prevent any ambient light from shining on the plate. Replicate pairs of plates were performed.
# The LED arrays were connected to a micro controller that was programmed to control individual LEDs, LED rows, or LED columns within the array. The controller allowed for modulation of LED intensity by controlling the on/off timing (PWM) or by directly controlling the supplied voltage. The temporal control was <10 ms. The LEDs and microcontroller were powered optionally by a power supply unit connected to a standard 110 V outlet or by a battery-pack, which allowed for use in a cell culture incubator. The LED array was used as lid to illuminate plates from the top and as a stage to illuminate the plates from the bottom, as required by the experimental setup.
# [1] = test system: acetylation of histone H3 Lysine 9 (H3K9Ac) in MCF7 cells; assay: H3K9Ac pharmacodynamic marker in MCF7 cells; format: cell-based; settings: for histone acetylation above background: in the absence of light; for acetylation of H3K9 relative to vehicle control: in the presence of light
# From the text: BG14, BG47 and BG48 were profiled in cell culture to assess cellular activity using acetylation of histone H3 Lysine 9 (H3K9Ac) as a pharmacodynamic marker for HDAC inhibition. […] H3K9 acetylation levels directly correlated with light exposure.
# HDAC3 = target: T1, HDAC3 (Homo sapiens, UniProt O15379); assay: Light-dependent HDAC3 biochemical assay (acetyl-lysine tripeptide based on acH4K12); settings: for inhibition of HDAC3 enzymatic activity: in the presence and absence of light
# T1 construct: 40 μL of a stock solution of full-length HDAC protein at three times the desired final concentration
# Description: as §1
# HDAC enzyme = assay: HDAC inhibitory activity as a function of light exposure time; format: biochemical; settings: continuous 470 nm light, measured in 15 min intervals
# Description: The activation of the photoswitchable inhibitors depends on the light energy and the exposure time (as predicted by our model). […] Following pre-incubation of the HDAC enzyme and respective small molecule inhibitor, the enzyme substrate was added and the assay plate was continuously exposed to light (470 nm). Inhibitory activities were measured in 15 min intervals.
# HDAC1 = target: T2, HDAC1 (Homo sapiens, UniProt Q13547); assay: Half-life experiment (residence time on HDAC1 after light exposure); format: biochemical; settings: 520 nM, 1 hour 470 nm light, then dark 4, 8 and 17 hours; estimated
# T2 construct: 40 μL of a stock solution of full-length HDAC protein at three times the desired final concentration
# Description: To directly compare the residence time versus isoform relaxation time BG47 and BG48 were incubated with HDAC1 in alternating columns of a white 96-well plate. Columns 1 and 2 were exposed to 470 nm light (22.9V/0.2 A; 0.1 A per column) from LEDs using our excitation device 17 hours before the assay for 1 hour, resulting in 16 hours of relaxation time before the assay. Columns 3 and 4 were exposed to light 9 hours before the assay for 1 hour providing an 8 hour relaxation period and columns 5 and 6 were exposed 5 hours before the assay providing a 4 hour relaxation time point while columns 11 and 12 were used as controls with no pre-exposure. After the completion of the pre-exposure and relaxation time points a stock solution of trypsin and substrate was added to the plate. The plate was centrifuged and read using a Tecan Safire II every 2 minutes while keeping the plate inside the instrument, eliminating exposure to ambient light.
# Both compounds were incubated at 520 nM with HDAC1, exposed for 1 hour of […] light and stored in the dark for 4, 8 and 17 hours, respectively, followed by addition of enzyme substrate. The activity was monitored in reference to unexposed compound with continuous readout measured over 2 hours, estimating a residence half-live of 12-24 hours.
# [2] = test system: acetylation of histone H3 Lysine 9; assay: Acetylation of histone H3 Lysine 9 in live cells (biomarker for HDAC inhibition); format: cell-based; settings: immunofluorescent staining, with/without light
# From the text: The activity of the compounds in live cells was validated using acetylation of histone H3 Lysine 9 as a biomarker for HDAC inhibition.
# [3] = Thermal relaxation (cis-to-trans) half-life measurement; settings: aqueous vs chloroform
# T1 sequence (O15379 whole entry): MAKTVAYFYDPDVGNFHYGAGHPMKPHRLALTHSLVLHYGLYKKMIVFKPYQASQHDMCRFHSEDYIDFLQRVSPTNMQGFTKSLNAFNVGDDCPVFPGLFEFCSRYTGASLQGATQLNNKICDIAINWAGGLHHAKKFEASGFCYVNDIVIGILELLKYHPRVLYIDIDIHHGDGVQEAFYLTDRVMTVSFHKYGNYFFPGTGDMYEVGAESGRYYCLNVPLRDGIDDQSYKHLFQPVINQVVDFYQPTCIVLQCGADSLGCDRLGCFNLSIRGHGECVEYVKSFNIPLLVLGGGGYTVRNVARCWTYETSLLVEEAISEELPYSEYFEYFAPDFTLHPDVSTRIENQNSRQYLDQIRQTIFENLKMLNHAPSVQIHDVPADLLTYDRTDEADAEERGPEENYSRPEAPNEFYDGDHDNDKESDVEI
# T1 sequence (Q9Y618 395-489 partner limits assumed): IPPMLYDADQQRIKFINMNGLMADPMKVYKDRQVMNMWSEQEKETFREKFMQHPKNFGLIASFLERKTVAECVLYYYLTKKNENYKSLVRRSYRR
# T2 sequence (Q13547 whole entry): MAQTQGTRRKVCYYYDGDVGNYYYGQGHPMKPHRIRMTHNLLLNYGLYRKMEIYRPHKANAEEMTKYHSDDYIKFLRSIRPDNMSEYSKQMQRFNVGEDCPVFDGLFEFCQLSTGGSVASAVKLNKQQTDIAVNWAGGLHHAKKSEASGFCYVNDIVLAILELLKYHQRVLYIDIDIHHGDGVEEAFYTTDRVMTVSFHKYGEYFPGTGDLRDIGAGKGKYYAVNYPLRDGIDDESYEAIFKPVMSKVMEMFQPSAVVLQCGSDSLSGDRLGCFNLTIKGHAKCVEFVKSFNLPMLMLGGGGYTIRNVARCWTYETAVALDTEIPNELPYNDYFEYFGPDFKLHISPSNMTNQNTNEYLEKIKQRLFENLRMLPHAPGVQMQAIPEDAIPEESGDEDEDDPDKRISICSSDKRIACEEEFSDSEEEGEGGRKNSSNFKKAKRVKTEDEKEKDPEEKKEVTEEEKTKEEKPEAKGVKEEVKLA
smiles,measurement,setting,value
"Nc1ccccc1NC(=O)c1ccc(N=Nc2ccccc2)cc1 [BG12, N-(2-aminophenyl)-4-(phenyldiazenyl)benzamide]",absorbance range,Absorbance spectra,maximally absorbs in the UV range
"CN(C)c1ccc(N=Nc2ccc(C(=O)Nc3ccccc3N)cc2)cc1 [BG14, N-(2-aminophenyl)-4-((4-(dimethylamino)phenyl)diazenyl)benzamide]",transcript levels of L1000 landmark genes,"MCF7 cells; MCF7, absence of light",did not show any significant changes in transcript levels
same,expression levels of landmark genes,"MCF7 cells; MCF7, increasing amounts of light",significant changes of expression levels of specific landmark genes
same,change of inhibitory activity against HDAC1-3 on light exposure,HDAC1-3,Significantly increased activity
same,histone acetylation above background,[1],No significant histone acetylation above background
same,acetylation of H3K9 relative to vehicle control,[1],strongly induced acetylation of H3K9
same,increase of H3K9 acetylation compared among the inhibitors,[1]; with light,strongest increase of H3K9 acetylation
same,absorbance range,Absorbance spectra,absorbed in the blue range of the visible spectrum
same,inhibition of HDAC3 enzymatic activity,HDAC3,potent light-dependent inhibitory activity; also recorded: also inhibits HDAC3
same,dependence of HDAC3 inhibitory activity on light exposure,HDAC3; varying average light exposure,directly proportional to the average light exposure
same,activity change as a function of light exposure time,HDAC enzyme,increased activity with increased exposure time
"CN(C)c1ccc(N=Nc2ccc(C(=O)Nc3ccccc3O)cc2)cc1 [BG18, 4-((4-(dimethylamino)phenyl)diazenyl)-N-(2-hydroxyphenyl)benzamides]",change of inhibitory activity against HDAC1-3 on light exposure,HDAC1-3,Significantly increased activity
same,absorbance range,Absorbance spectra,absorbed in the blue range of the visible spectrum
"Nc1ccccc1NC(=O)c1ccc(N=Nc2ccc(C(=O)O)cc2)cc1 [BG19, 4-((4-((2-aminophenyl)carbamoyl)phenyl)diazenyl)benzoic Acid]",absorbance range,Absorbance spectra,maximally absorbs in the UV range
"CN(C)c1ccc(N=Nc2ccc(C(=O)Nc3cc(-c4cccs4)ccc3N)cc2)cc1 [BG47, N-(2-amino-5-(thiophen-2-yl)phenyl)-4-((4-(dimethylamino)phenyl)diazenyl)benzamide]",HDAC isoform selectivity,HDAC1-3,HDAC1/2-selective
same,change of inhibitory activity against HDAC1-3 on light exposure,HDAC1-3,Significantly increased activity
same,histone acetylation above background,[1],No significant histone acetylation above background
same,acetylation of H3K9 relative to vehicle control,[1],strongly induced acetylation of H3K9
same,absorbance range,Absorbance spectra,absorbed in the blue range of the visible spectrum
same,residence time,HDAC1,720 to 1440 min
same,inhibition of HDAC3 enzymatic activity,HDAC3,did not inhibit HDAC3 in the presence and absence of light
"CN(C)c1ccc(N=Nc2ccc(C(=O)Nc3cc(-c4ccccc4)ccc3N)cc2)cc1 [BG48, N-(4-amino-[1,1′-biphenyl]-3-yl)-4-((4-(dimethylamino)phenyl)diazenyl)benzamide]",HDAC isoform selectivity,HDAC1-3,HDAC1/2-selective
same,change of inhibitory activity against HDAC1-3 on light exposure,HDAC1-3,Significantly increased activity
same,histone acetylation above background,[1],No significant histone acetylation above background
same,acetylation of H3K9 relative to vehicle control,[1],strongly induced acetylation of H3K9
same,absorbance range,Absorbance spectra,absorbed in the blue range of the visible spectrum
same,residence time,HDAC1,720 to 1440 min
same,inhibition of HDAC3 enzymatic activity,HDAC3,did not inhibit HDAC3 in the presence and absence of light
"CN(C)c1ccc(N=Nc2ccc(C(=O)Nc3ccccc3O)cc2)cc1 [BG49, 4-((4-(dimethylamino)phenyl)diazenyl)-N-(2-hydroxyphenyl)benzamides]",hyperacetylation of H3K9 relative to DMSO control,[2],statistically significant induced hyperacetylation of H3K9 relative to DMSO control was observed only following light exposure
same,inhibition of HDAC3 enzymatic activity,HDAC3,not targeted
"CC(=O)Nc1ccc(C(=O)Nc2ccccc2N)cc1 [CI-994, reference compound]",change of inhibitory activity against HDAC1-3 on light exposure,HDAC1-3,no differential activity
same,inhibition of HDAC3 enzymatic activity,HDAC3,no differential activity
CN(C)c1ccc(N=Nc2ccc(C(=O)O)cc2)cc1 [DABCYL],thermal relaxation faster than previous measurements in chloroform,[3],approximately 120 ×
Nc1ccccc1NC(=O)c1ccc(CNC(=O)OCc2cccnc2)cc1 [MS-275],activity change as a function of light exposure time,HDAC enzyme,Only compound BG14 shows increased activity with increased exposure time
O=C(CCCCCCC(=O)Nc1ccccc1)NO [SAHA],activity change as a function of light exposure time,HDAC enzyme,Only compound BG14 shows increased activity with increased exposure time
